Values quoted from earlier work in patent publication US20020146399A1, “Sorbic acid product comprising probiotics as addition to feedstuffs in agricultural livestock rearing” (priority 2001, published 2002).

What was measured:
[1] = extensive data and decades of use in human food and animal feeds

For `C/C=C/C=C/C(=O)O` [Sorbic acid, trans,trans-2,4-hexadienoic acid], the toxicity [1] is listed as “virtually nontoxic” and the “solubility in cold water” value is listed as “dissolves only slightly”.
